# {Biotin} = biotin label at the PNA N-terminus, attached through the O linker (8-amino-3,6-dioxaoctanoic acid); {PacBlue} = Pacific Blue dye label at the PNA N-terminus, attached through the O linker; {TAMRA} = TAMRA (TAM) fluorescent label at the PNA N-terminus
# Columns and labels:
# MecA = experiment: PNA FISH with tyramide signal amplification (Example 4); assay type: cell-based, S. aureus; conditions: MRSA 33591, oxacillin-induced; 500 nM total; streptavidin-HRP, AlexaFluor 594-labeled tyramide; FIG. 4
# Description: Cell fixation and permeabilization was also performed as described in Example 1 except that prior to hybridization the slides were treated at 80° C. for 5 minutes with 75 μL of TE buffer (Tris-HCl 100 mM, EDTA, 10 mM, pH 8.0). For hybridization, 25 μL of HB** containing five biotin-labeled PNA probes (Probes 11, 12, 13, 14 and 15 (concentration of each probe was 100 nM for a total concentration of 500 nM) was applied on one slide. Another slide was probed with one biotin-labeled, C. albicans—specific rRNA-directed probe (probe 10, concentration 500 nM) in control experiment. Hybridization and washing were performed as described in Example 1. Slides were then processed with reagents commercially available from Molecular Probes (TSA Kit #25, Eugene, Oreg.) according to manufacturer's protocol. Specifically, slide-deposited cells were first incubated 30 min with 0.075 mL of Blocking Buffer (BB) then 30 min with 0.1 mL of streptavidin-HRP diluted in BB. After washing (3×5 min wash) with PBS-Tween, the cells were incubated 10 min with 0.075 mL of AlexaFluor 594-labeled tyramide solution and washed (3×5 min wash) again. A drop of MM and cover slip was then applied on air dried slides and the cells were examined by FM. […]
# rRNA [1] = experiment: PNA FISH with rRNA-directed probes on S. aureus cells (Examples 2-3); assay type: cell-based
# Source text: Some (but not all) of the visible colonies in the slides are surrounded by a circle (slide A) or a square (Slide B). This should assist in analysis of the slides where black and white copies of the Figures are provided in lieu of color copies. In Image A-1 and A-2, the same colonies are encircled to simplify the comparison. The conditions for each of the slides examined in FIG. 2, are as follows: • A-1) MRSA 43300, Dual band filter • B-1) MSSA 29213, Dual band filter • A-2) MRSA 43300, FITC filter • B-2) MSSA 29213, FITC filter
# rRNA [2] = experiment: PNA FISH with rRNA-directed probes on S. epidermidis cells (Example 3); conditions: MRSE 51625 in mixture with MRSA 43300
# Description: In this example a mixture of MRSA 43300 and MRSE 51625 was prepared and examined using three fluorescent filters as described below. The growth and oxacillin induction of S. aureus cells was performed as described in Example 1. […] S. epidermidis was grown essentially as described for S. aureus in Example 1. Cell fixation and permeabilization of both MRSA 43300 and MRSE 51625 was performed as described in Example 1.
# The remainder of the procedure was performed as described in Example 1. These images are of the same section of the slide. In each case, only the fluorescence filter was changed.
# MecA mRNA = experiment: PNA FISH of MecA mRNA in permeabilized S. aureus (Examples 1-3); assay type: cell-based; conditions: MRSA 43300, oxacillin-induced; FIG. 1 Slides B-D; Probes 1-5 794 nM combined, Probe 2 750 nM, Probe 6 750 nM
substance,measurement,setting,value
"AGAGAGCAGCATCCA (all peptide nucleic acid (PNA), 5' {Biotin}; peptide nucleic acid FISH probe, chemically synthesized) [Probe 10, Biotin-labeled C. albicans-specific rRNA-directed PNA probe, control]",fluorescent staining of bacteria after tyramide signal amplification,MecA,absence of visible bacteria
"TAM-GCTTCTCGTCCGTTC (all peptide nucleic acid (PNA), 5' {TAMRA}; peptide nucleic acid FISH probe; listed as Staphylococcus aureus) [Probe 8]",fluorescent staining of bacteria (dual band filter),"rRNA [1]; MRSA 43300 and MSSA 29213, 500 nM, FIG. 2 Slides A-1 and B-1",Red fluorescent stained bacteria
same,fluorescent staining of bacteria (dual band filter),"rRNA [1]; MRSA 43300 in mixture with MRSE 51625, FIG. 3 Image A",red fluorescence
same,fluorescent staining of bacteria (dual band filter),rRNA [2]; FIG. 3 Image A,no TAMRA signal
"TCAATGAGCAAAGGT (all peptide nucleic acid (PNA); fluorescein label, position not given here; listed as Escherichia coli) [Probe 6, Flu-labeled E. coli specific rRNA-directed PNA probe, control]",fluorescent staining of bacteria (FITC filter),MecA mRNA,No signal was observed
"TCCTCGTCTGTTCGC (all peptide nucleic acid (PNA), 5' {PacBlue}; peptide nucleic acid FISH probe, chemically synthesized; listed as Staphylococcus epidermidis) [Probe 9]",fluorescent staining of bacteria (DAPI filter),"rRNA [2]; 500 nM, FIG. 3 Image B",Blue stained MRSE bacteria are visible

# From patent publication US20160257997A1, “METHODS FOR WHOLE-CELL ANALYSIS OF GRAM-POSITIVE BACTERIA” (AdvanDx, Inc., priority 2009, published 2016)
